Measured values: US6180650A, “Heterosubstituted pyridine derivatives as PDE 4 inhibitors” (Merck Frosst Canada & Co., priority 2000, dated 2001)

Target: T1, GST-Met 248 PDE 4a (Homo sapiens, UniProt P27815)
T1 construct: phosphodiesterase IVa (met-248); made in house; host or cells: baculovirus/Sf-9
Assay: SPA based PDE activity assay (IC50, purified GST fusion protein of human recombinant phosphodiesterase IVa (met-248), baculovirus/Sf-9)
Assay type: biochemical
Conditions: 100 nM cAMP, 30° C., pH 7.5, 10 min; approximated by non-linear regression of a ten point titration
Method: SPA BASED PDE ACTIVITY ASSAY PROTOCOL Compounds which inhibit the hydrolysis of cAMP to AMP by the type-IV cAMP-specific phosphodiesterases were screened in 96-well plate format as follows: In a 96 well-plate at 30° C. was added the test compound (dissolved in 2 μl DMSO), […] of substrate buffer containing [2,8-^3 H] adenosine 3',5'-cyclic phosphate (cAMP, 100 nM to 50 μM), 10 mM MgCl2, 1 mM EDTA, 50 mM Tris, pH 7.5. The reaction was initiated by the addition of […] of human recombinant PDE-IV (the amount was controlled so that ~10% product was formed in 10 min.). The reaction was stopped after 10 min. by the addition of 1 mg of PDE-SPA beads (Amersham). The product AMP generated was quantified on a Microbeta 96-well plate counter. The signal in the absence of enzyme was defined as the background. 100% activity was defined as the signal detected in the presence of enzyme and DMSO with the background subtracted. Percentage of inhibition was calculated accordingly. IC50 value was approximated with a non-linear regression fit using the standard 4-parameter/multiple binding sites equation from a ten point titration. IC50 values shown in Table 7 were determined with 100 nM cAMP using the purified GST fusion protein of the human recombinant phosphodiesterase IVa (met-248) produced from a baculovirus/Sf-9 expression system.

T1 sequence (P27815 248-886 limits assumed): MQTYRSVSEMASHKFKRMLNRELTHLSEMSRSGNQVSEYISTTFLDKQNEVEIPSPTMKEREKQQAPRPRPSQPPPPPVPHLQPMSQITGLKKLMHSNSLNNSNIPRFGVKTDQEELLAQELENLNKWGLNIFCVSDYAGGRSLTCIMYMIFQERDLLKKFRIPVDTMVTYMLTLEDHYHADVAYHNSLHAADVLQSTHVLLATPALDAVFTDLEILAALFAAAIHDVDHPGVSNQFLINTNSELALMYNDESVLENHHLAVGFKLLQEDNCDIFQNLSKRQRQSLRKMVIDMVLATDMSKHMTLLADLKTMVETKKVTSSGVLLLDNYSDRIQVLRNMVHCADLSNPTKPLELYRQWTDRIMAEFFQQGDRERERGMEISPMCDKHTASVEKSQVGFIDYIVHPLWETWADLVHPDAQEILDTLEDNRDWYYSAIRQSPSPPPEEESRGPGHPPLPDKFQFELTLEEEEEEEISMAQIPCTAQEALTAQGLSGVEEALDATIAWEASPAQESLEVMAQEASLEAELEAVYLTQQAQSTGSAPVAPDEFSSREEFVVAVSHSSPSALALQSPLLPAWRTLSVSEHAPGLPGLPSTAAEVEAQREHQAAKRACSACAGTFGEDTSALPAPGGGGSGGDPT

IC50 [nM] | Compound
2.85 | [O-][n+]1ccc(CC(c2ccc(Oc3ccc(OC(F)(F)F)cc3)nc2)c2ccc(OC(F)F)c(OC(F)F)c2)cc1 (racemic) [Example 1, 4-{2-[3,4-Bis(difluoromethoxy)phenyl]-2-{6-[4-(trifluoromethoxy)phenoxy]3-pyridyl}ethyl}pyridine-N-oxide]
1.43 | [O-][n+]1ccc(CC(c2ccc(OCc3ccc(F)c(F)c3)nc2)c2ccc(OC(F)F)c(OC(F)F)c2)cc1 (racemic) [Example 16, 4-{2-[3,4-Bis(difluoromethoxy)phenyl]-2-[6-(3,4-difluorobenzyloxy)3-pyridyl]ethyl}pyridine-N-oxide]
3.2 | CC(C)(COc1ccc(C(Cc2cc[n+]([O-])cc2)c2ccc(OC(F)F)c(OC(F)F)c2)cn1)c1ccc(F)cc1 (racemic) [Example 23, 4-{2-[3,4-Bis(difluoromethoxy)phenyl]-2-{6-[2-methyl-2-(4-fluorophenyl)propyloxy]3-pyridyl}ethyl}pyridine-N-oxide]
0.2 | CC(C)(Cc1ccccc1)Oc1ccc(C(Cc2cc[n+]([O-])cc2)c2ccc(OC(F)F)c(OC(F)F)c2)cn1 (racemic) [Example 28, 4-{2-[3,4-Bis(difluoromethoxy)phenyl]-2-[6-(1,1-dimethyl-2-phenylethoxy)3-pyridyl]ethyl}pyridine-N-oxide]
